Test results from publication PMC4749168, “Potentiation of ΔF508- and G551D-CFTR-Mediated Cl^- Current by Novel Hydroxypyrazolines” (PLoS ONE, 2016).
Where “and” joins values, the source holds several entries; their conditions need not be identical. Equal values may be shown once.

Assays:
Assay type in all cases: cell-based
[1] = target: T1, WT-CFTR (Homo sapiens, UniProt P13569); experiment: Apical membrane current (Ussing chamber) in FRT cells expressing WT-CFTR
T1 construct: expressed in transfected cells; host or cells: Fisher rat thyroid (FRT) cells, co-expressing halide sensor YFP-H148Q/I152L; provided by Dr. Alan Verkman
Experimental: Snapwell inserts containing CFTR-expressing FRT and primary culture of human nasal epithelial cells were mounted in Ussing chambers (Physiologic Instruments, San Diego, CA). Forskolin, genistein, CP7q and CFTRinh-172 were added to the apical and basolateral bath solution. For FRT cells, the apical bath was filled with a half-Cl^- solution and the basolateral bath was filled with HCO3^—buffered solution, and the basolateral membrane was permeabilized with 250 μg/mL amphotericin B. For primary cultures of human nasal epithelial cells, symmetrical HCO3^—buffered solutions were used and ENaC was inhibited by pre-treatment with amiloride (100 μM). All cells were bathed for a 20 min stabilization period and aerated with 95% O2 / 5% CO2 at 37°C. Apical membrane current and short-circuit current were measured with an EVC4000 Multi-Channel V/I Clamp (World Precision Instruments, Sarasota, FL) and recorded using PowerLab 4/35 (AD Instruments, Castle Hill, Australia). Data were collected and analyzed with ADInstruments acquisition software Labchart Pro 7 software. The sampling rate was 4 Hz.

[2] = target: T1, WT-CFTR; experiment: Whole-cell patch-clamp in FRT cells expressing WT-CFTR
Experimental: Whole-cell patch-clamp recordings were performed on WT- or ΔF508-CFTR-expressing FRT cells. The bath solution contained (in mM): 140 NMDG-Cl, 1 CaCl2, 1 MgCl2, 10 glucose and 10 HEPES (pH 7.4). The pipette solution contained (in mM): 130 CsCl, 0.5 EGTA, 1 MgCl2, 1 Tris-ATP, and 10 HEPES (pH 7.2). Pipettes were pulled from borosilicate glass and had resistances of 3–5 MΩ after fire polishing. Seal resistances were between 3 and 10 GΩ. After establishing the whole-cell configuration, CFTR was activated by forskolin and/or CP7q. Whole-cell currents were elicited by applying hyperpolarizing and depolarizing voltage pulses from a holding potential of 0 mV to potentials between -80 mV and +80 mV in steps of 20 mV. Recordings were made at room temperature using an Axopatch-200B (Axon Instruments). Currents were digitized and analyzed using a Digidata 1440A converter (Axon Instruments), and pCLAMP 10.2 software (Molecular Devices, Sunnyvale, CA). Currents were low-pass filtered at 1 kHz and sampled at 5 kHz

[3] = target: ΔF508-CFTR (Homo sapiens, UniProt P13569, DEL508-508); experiment: Immunoblot of ΔF508-CFTR band C/B in A549-ΔF508-CFTR cells; design: expressed in transfected cells; details: 48 h, combined with 5 μM VX-809, 10 μM CP7q, vs VX-809 alone
Experimental: A549 cells stably expressing ΔF508-CFTR were lysed with cell lysis buffer (50 mM Tris-HCl, pH 7.4, 1% Nonidet P-40, 0.25% sodium deoxycholate, 150 mM NaCl, 1 mM EDTA, 1 mM Na3VO4, and protease inhibitor mixture). Whole cell lysates were centrifuged at 15,000 g for 10 min at 4°C to remove the cell debris, and equal amounts (80 μg protein/lane) of supernatant protein were separated by 4–12% Tris-glycine precast gel (KOMA BIOTECH, Seoul, Korea) and then transferred onto PVDF membrane (Millipore, Billerica, MA). Membrane was blocked with 5% non-fat skim milk in PBS including 0.05% Tween 20 for 1 hour at room temperature. This membrane was then incubated overnight with primary CFTR antibody (M3A7, Millipore, Billerica, MA). After washing with 0.05% Tween 20 in PBS (PBST), the blot was further incubated for 45 min at room temperature with an anti-mouse secondary antibody (Cell Signaling). The membrane was then washed three times with PBST for 5 minutes and then visualized using the ECL Plus western blotting detection system (GE Healthcare Amersham; Piscataway, NJ). The immunoblot results were analyzed quantitatively by ImageJ Software.

Chain of ΔF508-CFTR (P13569 with tags, fused parts or gaps DEL508-508): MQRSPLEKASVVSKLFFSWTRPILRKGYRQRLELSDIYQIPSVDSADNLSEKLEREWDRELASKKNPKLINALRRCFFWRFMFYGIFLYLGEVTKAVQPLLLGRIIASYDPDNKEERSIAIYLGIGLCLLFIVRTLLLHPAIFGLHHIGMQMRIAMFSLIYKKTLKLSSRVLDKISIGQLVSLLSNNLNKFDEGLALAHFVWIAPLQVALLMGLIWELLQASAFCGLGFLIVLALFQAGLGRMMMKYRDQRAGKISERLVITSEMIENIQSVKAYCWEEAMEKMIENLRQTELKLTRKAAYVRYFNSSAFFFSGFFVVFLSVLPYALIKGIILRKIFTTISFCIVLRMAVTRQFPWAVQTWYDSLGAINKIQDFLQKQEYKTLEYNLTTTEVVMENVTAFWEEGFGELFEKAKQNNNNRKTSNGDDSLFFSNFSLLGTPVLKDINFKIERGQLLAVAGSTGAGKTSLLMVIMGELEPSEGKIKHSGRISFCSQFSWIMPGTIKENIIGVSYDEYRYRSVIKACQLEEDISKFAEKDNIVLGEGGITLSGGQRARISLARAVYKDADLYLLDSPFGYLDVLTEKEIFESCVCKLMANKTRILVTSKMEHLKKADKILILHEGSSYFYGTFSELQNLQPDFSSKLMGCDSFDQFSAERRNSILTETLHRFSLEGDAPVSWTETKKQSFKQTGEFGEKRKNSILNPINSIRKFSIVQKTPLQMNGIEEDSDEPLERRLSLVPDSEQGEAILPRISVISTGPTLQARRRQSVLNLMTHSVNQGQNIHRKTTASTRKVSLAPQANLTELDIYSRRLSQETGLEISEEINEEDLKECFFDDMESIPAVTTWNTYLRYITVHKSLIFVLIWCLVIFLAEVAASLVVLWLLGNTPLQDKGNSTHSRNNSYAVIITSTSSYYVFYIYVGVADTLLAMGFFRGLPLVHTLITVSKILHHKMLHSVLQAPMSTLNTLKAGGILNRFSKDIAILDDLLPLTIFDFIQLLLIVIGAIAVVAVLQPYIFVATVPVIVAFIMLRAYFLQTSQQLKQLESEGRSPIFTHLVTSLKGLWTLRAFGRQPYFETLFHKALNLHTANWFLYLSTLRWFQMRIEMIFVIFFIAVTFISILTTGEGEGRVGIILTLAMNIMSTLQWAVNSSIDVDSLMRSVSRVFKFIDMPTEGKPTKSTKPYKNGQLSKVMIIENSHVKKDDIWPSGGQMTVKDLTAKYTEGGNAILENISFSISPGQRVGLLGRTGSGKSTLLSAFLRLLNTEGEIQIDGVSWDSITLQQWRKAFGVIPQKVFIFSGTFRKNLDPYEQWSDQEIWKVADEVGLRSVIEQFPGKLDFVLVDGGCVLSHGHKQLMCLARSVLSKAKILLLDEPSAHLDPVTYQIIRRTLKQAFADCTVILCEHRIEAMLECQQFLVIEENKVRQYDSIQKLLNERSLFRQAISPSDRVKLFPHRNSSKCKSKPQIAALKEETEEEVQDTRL

COc1ccc(C2CC(c3ccc(O)cc3O)=NN2c2ccc(S(N)(=O)=O)cc2)c(OC)c1 (centres unmarked) [Compound 7q, 4-[3-(2,4-dihydroxyphenyl)-5-(2,4-dimethoxyphenyl)-4,5-dihydro-1H-pyrazol-1-yl] benzenesulfonamide]
EC50 ([1]; FRT-WT-CFTR cells, 0.1 μM forskolin): 880 nM and ~880 nM
Maximum efficacy of CFTR potentiation compared with genistein ([1]; WT-CFTR stimulated by 0.1 μM forskolin): significantly higher than that of genistein
Potentiation of whole-cell WT-CFTR Cl- current ([2]; 0.1 μM forskolin, 10 μM CP7q): strongly potentiated
Activation of WT-CFTR without forskolin stimulation ([2]; whole cell patch-clamp, no forskolin): did not activate
Effect on ratio of band C to band B of ΔF508-CFTR [3]: strongly increased
